# Data: ChEMBL document CHEMBL1146404, “Antihyperglycemic activity of phenolics from Pterocarpus marsupium” (1997)
# Tests used:
# Type in all cases: functional
# Rattus norvegicus [1] = assay: Effect on nondiabetic rat assessed as blood glucose level per 100 mL at 20 mg/kg, po
# Rattus norvegicus [2] = assay: Antihyperglycemic activity in streptozotocin-induced nonfasted diabetic rat assessed as decrease in blood glucose level at 20 mg/kg, po administered for 3 days measured 1 hr after last dose; parameters: scale not given: the % may be the effect or the level left
# Rattus norvegicus [3] = species: Rattus norvegicus; assay: Decrease in body weight in nondiabetic rat; parameters: scale not given: the % may be the effect or the level left
# Rattus norvegicus [4] = assay: Antihyperglycemic activity in streptozotocin-induced nonfasted diabetic rat assessed as decrease in blood glucose level at 30 mg/kg, po administered for 3 days measured 1 hr after last dose; parameters: scale not given: the % may be the effect or the level left
SMILES,Activity (Rattus norvegicus [1]),Activity (Rattus norvegicus [2]),Activity (Rattus norvegicus [3]),Activity (Rattus norvegicus [4])
COc1cc(O)cc2c1C(=O)C(O)(Cc1ccc(O)cc1)O2 (configuration not stated) [CARPUSIN],64%,33%,20%,–
CN(C)C(=N)NC(=N)N [METFORMIN],–,–,–,48%
COc1cc(/C=C/c2ccc(O)cc2)cc(OC)c1 [PTEROSTILBENE],65%,11%,20%,–
